# pIC50: −log10 of the molar value.
# Experiments:
# Plasmodium falciparum [1] = test: Antimalarial activity against blood stage forms of Plasmodium falciparum 3D7 infected in human erythrocytes; assay type: functional, organism-based
# [2] = Inhibition of Plasmodium falciparum recombinant NDH2 expressed in Escherichia coli F571 using decyclubiquinone as substrate at 1 min by spectrophotometry
# Plasmodium falciparum [3] = test: Antimalarial activity against chloroquine-resistant Plasmodium falciparum W2; assay type: functional, organism-based
# Plasmodium berghei [4] = test: Antimalarial activity against Plasmodium berghei NS infected in po dosed CD1 mouse assessed as decrease in parasitemia measured on day 4; assay type: functional; conditions: 96 h
# Plasmodium berghei [5] = test: Antimalarial activity against Plasmodium berghei NS infected in CD1 mouse assessed as decrease in parasitemia at 20 mg/kg, po administered using Na2CO3 as vehicle measured on day 4; assay type: functional; design: scale not given: the % may be the effect or the level left
# Plasmodium berghei [6] = test: Antimalarial activity against Plasmodium berghei NS infected in CD1 mouse assessed as decrease in parasitemia at 20 mg/kg, po administered using SSV as vehicle measured on day 4; assay type: functional; design: scale not given: the % may be the effect or the level left
# [7] = Cmax in rat at 20 mg/kg, po; assay type: ADME, organism-based; design: dose 20 mg/kg, route oral; conditions: in vivo
# [8] = Tmax in rat at 20 mg/kg, po; assay type: ADME, organism-based; design: dose 20 mg/kg, route oral; conditions: in vivo
# [9] = Half life in rat at 20 mg/kg, po; assay type: ADME, organism-based; design: dose 20 mg/kg, route oral; conditions: in vivo
# Rattus norvegicus = test: Volume of distribution in rat at 20 mg/kg, po; assay type: ADME, organism-based; design: dose 20 mg/kg, route oral; conditions: in vivo
# [10] = AUC (0 to t) in rat at 20 mg/kg, po; assay type: ADME, organism-based; design: dose 20 mg/kg, route oral; conditions: plasma
# [11] = Total clearance in rat at 20 mg/kg, po; assay type: ADME, organism-based; design: dose 20 mg/kg, route oral; conditions: in vivo
# Plasmodium falciparum [12] = test: Antimalarial activity against […]-resistant Plasmodium falciparum TM90C2B containing cytochrome-b Y268S mutant; assay type: functional, organism-based
# Plasmodium berghei [13] = test: Antimalarial activity against Plasmodium berghei NS infected in CD1 mouse assessed as decrease in parasitemia at 20 mg/kg, po administered using DET as vehicle measured on day 4; assay type: functional; design: scale not given: the % may be the effect or the level left
SMILES,pIC50 (Plasmodium falciparum [1]),also measured
CCOC(=O)c1c(-c2ccc(-c3ccc(OC(F)(F)F)cc3)nc2)[nH]c2ccccc2c1=O,6.01,–
Cc1c(-c2ccc(-c3ccc(C(F)(F)F)nc3)nc2)[nH]c2ccccc2c1=O,6.43,pIC50 (Plasmodium falciparum [3]): 6.48
Cc1c(-c2ccc(Oc3ccc(OC(F)(F)F)cc3)nc2)[nH]c2ccccc2c1=O,7.40,pIC50 [2]: 6.96; pIC50 (Plasmodium falciparum [3]): 7.30
Cc1c(-c2ccc(Cc3ccc(C(F)(F)F)nc3)cc2F)[nH]c2ccccc2c1=O,6.87,pIC50 (Plasmodium falciparum [3]): 7.17
Cc1c(-c2ccc(CN3CCOCC3)cc2)[nH]c2cc(Cl)ccc2c1=O,< 6.00,–
Cc1c(-c2ccc(CN3CCOCC3)cc2)[nH]c2ccccc2c1=O,7.49,pIC50 (Plasmodium falciparum [3]): 5.51
Cc1c(-c2ccc(OC3CCOCC3)cc2)[nH]c2ncccc2c1=O,< 6.00,–
Cc1c(-c2ccc(-c3ccc(CN4CCOCC4)cc3)cc2)[nH]c2ccccc2c1=O,6.30,–
Cc1c(-c2ccc(OCCN3CCOCC3)cc2)[nH]c2ccc(Cl)cc2c1=O,< 6.00,–
Cc1c(-c2ccc(OCCN3CCOCC3)cc2)[nH]c2cc(Cl)ccc2c1=O,< 6.00,–
Cc1c(-c2ccc(OCCN3CCN(C)CC3)cc2)[nH]c2ccccc2c1=O,< 6.00,–
Cc1c(-c2ccc(-c3cnn(CCN4CCCCC4)c3)cc2)[nH]c2ccccc2c1=O,< 6.00,–
Cc1c(-c2ccc(-c3ccc(OC(F)(F)F)cc3)nc2)[nH]c2ccccc2c1=O.O=P(O)(O)O,–,ED50 (Plasmodium berghei [4]): 1.87 mg/kg; ED90 (Plasmodium berghei [4]): 4.72 mg/kg
Cc1c(-c2ccc(-c3ccc(OC(F)(F)F)cc3)nc2)nc2ccccc2c1OP(=O)(O)O,–,Activity (Plasmodium berghei [5]): 100%
Cc1c(-c2ccc(-c3ccc(OC(F)(F)F)cc3)nc2)nc2ccccc2c1OC(=O)N1CCOCC1,–,Activity (Plasmodium berghei [6]): 100%; Cmax [7]: 8100 ng/mL; Tmax [8]: 7 h; half-life [9]: 20.3 h; Vd (Rattus norvegicus): 2.8756 L/kg; AUC(0-t) [10]: 167 µg·h/mL; CL/F [11]: 1.63 mL/min/kg
CO[C@H]1O[C@@H]2O[C@@]3(C)CC[C@H]4[C@H](C)CC[C@@H]([C@H]1C)[C@@]24OO3,–,ED50 (Plasmodium berghei [4]): 3.1 mg/kg; ED90 (Plasmodium berghei [4]): 5.8 mg/kg
O=C1C(O)=C([C@H]2CC[C@H](c3ccc(Cl)cc3)CC2)C(=O)c2ccccc21 [ATOVAQUONE],–,pIC50 (Plasmodium falciparum [12]): 4.92; Activity (Plasmodium berghei [6]): 100%; ED50 (Plasmodium berghei [4]): 0.07 mg/kg; ED90 (Plasmodium berghei [4]): 0.11 mg/kg; Activity (Plasmodium berghei [13]): 100%
CCN(CC)CCCC(C)Nc1ccnc2cc(Cl)ccc12 (stereo not drawn) [CHLOROQUINE],–,ED50 (Plasmodium berghei [4]): 3.3 mg/kg; ED90 (Plasmodium berghei [4]): 4.6 mg/kg

# Continued, in another order:
pIC50 (Plasmodium falciparum [1]),SMILES,also measured
6.99,O=c1c(CO)c(-c2ccc(-c3ccc(OC(F)(F)F)cc3)nc2)[nH]c2ccccc12,pIC50 [2]: 6.39
7.03,COc1c(-c2ccc(-c3ccc(OC(F)(F)F)cc3)nc2)[nH]c2ccccc2c1=O,–
6.55,Cc1c(-c2ccc(Oc3ccc(F)cc3)nc2)[nH]c2ccccc2c1=O,pIC50 [2]: 6.23
6.50,Cc1c(-c2ccc(OC3CCC(F)(F)CC3)cc2)[nH]c2ccccc2c1=O,–
< 6.00,Cc1c(-c2ccc(OC3CCOCC3)cc2)[nH]c2ccccc2c1=O,–
< 6.00,Cc1c(-c2ccc(-c3ccc(CN4CCOCC4)cc3)nc2)[nH]c2ccccc2c1=O,–
< 6.00,Cc1c(-c2ccc(OCCN3CCOCC3)cc2)[nH]c2ccccc2c1=O,–
< 6.00,Cc1c(-c2ccc(OCCN3CCCCC3)cc2)[nH]c2ccccc2c1=O,–
< 6.00,Cc1c(-c2ccc(OCCN3CCCC3)cc2)[nH]c2ccccc2c1=O,–
< 6.00,Cc1c(-c2ccc(OCCn3ccnc3)cc2)[nH]c2ccccc2c1=O,–
< 6.00,Cc1c(-c2ccc(-c3cnn(CCN4CCOCC4)c3)cc2)[nH]c2ccccc2c1=O,–
< 6.00,Cc1c(-c2ccc(-c3cccc(OCCN4CCOCC4)c3)nc2)[nH]c2ccccc2c1=O,–
< 6.00,Cc1c(-c2ccc(-c3cccc(OCCN4CCCCC4)c3)nc2)[nH]c2ccccc2c1=O,–
6.22,Cc1c(-c2ccc(-c3ccc(OCCN4CCCCC4)cc3)nc2)[nH]c2ccccc2c1=O,–
6.17,Cc1c(-c2ccc(CN3CCN(Cc4ccc(OC(F)(F)F)cc4)CC3)nc2)[nH]c2ccccc2c1=O,–

# From ChEMBL document CHEMBL2029230, “Identification, design and biological evaluation of heterocyclic quinolones targeting Plasmodium falciparum type II NADH:quinone oxidoreductase (PfNDH2)” (J Med Chem, 2012)
